Legend:
[1] = target: T1, Alpha-1A adrenergic receptor (Rattus norvegicus, UniProt P43140)
T1 sequence (P43140 whole entry): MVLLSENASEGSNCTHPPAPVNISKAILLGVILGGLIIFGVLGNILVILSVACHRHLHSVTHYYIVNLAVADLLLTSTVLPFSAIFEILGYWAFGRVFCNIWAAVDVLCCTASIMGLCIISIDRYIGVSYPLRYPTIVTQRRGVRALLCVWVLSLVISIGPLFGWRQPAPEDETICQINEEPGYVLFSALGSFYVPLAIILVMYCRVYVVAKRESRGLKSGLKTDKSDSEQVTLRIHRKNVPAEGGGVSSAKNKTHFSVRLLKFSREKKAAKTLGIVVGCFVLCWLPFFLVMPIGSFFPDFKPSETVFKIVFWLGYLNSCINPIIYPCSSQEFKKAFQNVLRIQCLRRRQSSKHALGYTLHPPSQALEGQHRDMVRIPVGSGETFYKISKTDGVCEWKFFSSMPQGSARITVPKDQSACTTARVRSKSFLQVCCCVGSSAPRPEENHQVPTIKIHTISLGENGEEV

[2] = target: Kappa-type opioid receptor (Rattus norvegicus, UniProt P34975)
Chain of Kappa-type opioid receptor (P34975 whole entry): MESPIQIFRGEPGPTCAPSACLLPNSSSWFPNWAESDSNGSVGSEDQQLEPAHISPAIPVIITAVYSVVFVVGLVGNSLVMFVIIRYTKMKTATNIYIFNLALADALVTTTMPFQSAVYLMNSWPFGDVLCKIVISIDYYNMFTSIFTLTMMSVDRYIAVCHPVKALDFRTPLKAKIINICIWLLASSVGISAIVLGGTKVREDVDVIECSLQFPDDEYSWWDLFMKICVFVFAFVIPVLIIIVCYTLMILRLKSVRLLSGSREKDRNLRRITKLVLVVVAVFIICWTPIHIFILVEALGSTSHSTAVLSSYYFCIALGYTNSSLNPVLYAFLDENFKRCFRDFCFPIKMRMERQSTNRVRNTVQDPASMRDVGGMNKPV

[3] = target: T2, Gastrin/cholecystokinin type B receptor (Rattus norvegicus, UniProt P30553)
T2 sequence (P30553 whole entry): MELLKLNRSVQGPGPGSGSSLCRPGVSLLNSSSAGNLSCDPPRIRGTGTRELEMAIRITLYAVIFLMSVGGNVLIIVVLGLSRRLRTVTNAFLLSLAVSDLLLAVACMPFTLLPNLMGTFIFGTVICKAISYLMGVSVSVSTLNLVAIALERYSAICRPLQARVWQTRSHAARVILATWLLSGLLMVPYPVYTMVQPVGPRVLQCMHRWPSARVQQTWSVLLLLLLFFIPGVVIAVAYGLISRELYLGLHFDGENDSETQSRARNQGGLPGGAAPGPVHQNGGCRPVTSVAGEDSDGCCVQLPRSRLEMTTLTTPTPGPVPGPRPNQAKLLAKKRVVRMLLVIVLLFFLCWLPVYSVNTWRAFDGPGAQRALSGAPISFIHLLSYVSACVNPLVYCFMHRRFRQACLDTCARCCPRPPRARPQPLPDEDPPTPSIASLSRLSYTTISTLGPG

[4] = target: T3, Adenosine receptor A1 (Bos taurus, UniProt P28190)
T3 sequence (P28190 whole entry): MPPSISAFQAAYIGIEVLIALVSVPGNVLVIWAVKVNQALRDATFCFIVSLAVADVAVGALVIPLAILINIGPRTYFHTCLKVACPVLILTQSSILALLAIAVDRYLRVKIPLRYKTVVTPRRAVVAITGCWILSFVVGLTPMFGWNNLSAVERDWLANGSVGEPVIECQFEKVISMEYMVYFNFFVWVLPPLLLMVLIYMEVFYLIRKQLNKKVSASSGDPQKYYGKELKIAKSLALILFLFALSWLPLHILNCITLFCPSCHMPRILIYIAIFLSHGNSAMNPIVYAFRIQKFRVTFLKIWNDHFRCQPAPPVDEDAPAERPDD

[5] = target: T4, 5-hydroxytryptamine receptor 3A (Mus musculus, UniProt P23979)
T4 sequence (P23979 whole entry): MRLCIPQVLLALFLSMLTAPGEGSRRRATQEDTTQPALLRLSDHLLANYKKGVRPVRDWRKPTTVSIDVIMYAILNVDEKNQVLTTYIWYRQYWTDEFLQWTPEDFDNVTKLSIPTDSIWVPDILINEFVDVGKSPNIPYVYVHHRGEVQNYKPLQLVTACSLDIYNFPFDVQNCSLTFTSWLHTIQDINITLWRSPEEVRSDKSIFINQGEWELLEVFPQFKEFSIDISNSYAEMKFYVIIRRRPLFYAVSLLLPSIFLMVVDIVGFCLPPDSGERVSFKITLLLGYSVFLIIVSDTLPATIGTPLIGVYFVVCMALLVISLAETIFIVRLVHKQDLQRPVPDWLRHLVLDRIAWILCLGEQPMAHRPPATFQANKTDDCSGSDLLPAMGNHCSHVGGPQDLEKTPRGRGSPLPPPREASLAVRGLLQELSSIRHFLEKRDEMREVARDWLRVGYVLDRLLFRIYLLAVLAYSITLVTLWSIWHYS

[6] = target: Muscarinic acetylcholine receptor M3 (Rattus norvegicus, UniProt P08483)
Chain of Muscarinic acetylcholine receptor M3 (P08483 whole entry): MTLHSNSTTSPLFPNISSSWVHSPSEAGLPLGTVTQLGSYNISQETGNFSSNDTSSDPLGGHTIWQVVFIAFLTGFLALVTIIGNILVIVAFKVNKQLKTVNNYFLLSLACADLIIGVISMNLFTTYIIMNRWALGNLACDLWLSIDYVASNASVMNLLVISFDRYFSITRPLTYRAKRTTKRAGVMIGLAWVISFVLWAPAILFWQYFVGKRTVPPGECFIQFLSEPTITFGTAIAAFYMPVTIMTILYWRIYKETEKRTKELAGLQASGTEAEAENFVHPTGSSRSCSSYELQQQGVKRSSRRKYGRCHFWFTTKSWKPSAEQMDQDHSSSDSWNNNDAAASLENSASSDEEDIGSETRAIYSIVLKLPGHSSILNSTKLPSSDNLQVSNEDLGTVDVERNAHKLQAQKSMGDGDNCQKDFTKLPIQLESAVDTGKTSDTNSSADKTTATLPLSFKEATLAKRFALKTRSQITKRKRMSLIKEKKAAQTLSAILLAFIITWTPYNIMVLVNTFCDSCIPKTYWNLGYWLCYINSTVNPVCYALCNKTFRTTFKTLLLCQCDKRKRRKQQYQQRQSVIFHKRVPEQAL

[7] = target: T5, Alpha-2C adrenergic receptor (Rattus norvegicus, UniProt P22086)
T5 sequence (P22086 whole entry): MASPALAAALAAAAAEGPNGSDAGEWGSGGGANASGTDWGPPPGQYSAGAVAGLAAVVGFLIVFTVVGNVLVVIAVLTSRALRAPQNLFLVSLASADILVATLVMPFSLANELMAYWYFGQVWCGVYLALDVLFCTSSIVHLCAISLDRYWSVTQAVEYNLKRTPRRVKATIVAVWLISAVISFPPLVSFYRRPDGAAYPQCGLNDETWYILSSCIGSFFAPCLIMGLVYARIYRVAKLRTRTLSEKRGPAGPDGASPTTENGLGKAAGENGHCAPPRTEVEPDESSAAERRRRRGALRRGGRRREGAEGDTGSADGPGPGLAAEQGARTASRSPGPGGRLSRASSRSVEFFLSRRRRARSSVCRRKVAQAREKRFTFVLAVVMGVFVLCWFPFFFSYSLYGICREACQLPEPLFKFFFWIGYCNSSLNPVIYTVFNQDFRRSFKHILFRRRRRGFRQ

[8] = target: Beta-1 adrenergic receptor (Rattus norvegicus, UniProt P18090)
Chain of Beta-1 adrenergic receptor (P18090 whole entry): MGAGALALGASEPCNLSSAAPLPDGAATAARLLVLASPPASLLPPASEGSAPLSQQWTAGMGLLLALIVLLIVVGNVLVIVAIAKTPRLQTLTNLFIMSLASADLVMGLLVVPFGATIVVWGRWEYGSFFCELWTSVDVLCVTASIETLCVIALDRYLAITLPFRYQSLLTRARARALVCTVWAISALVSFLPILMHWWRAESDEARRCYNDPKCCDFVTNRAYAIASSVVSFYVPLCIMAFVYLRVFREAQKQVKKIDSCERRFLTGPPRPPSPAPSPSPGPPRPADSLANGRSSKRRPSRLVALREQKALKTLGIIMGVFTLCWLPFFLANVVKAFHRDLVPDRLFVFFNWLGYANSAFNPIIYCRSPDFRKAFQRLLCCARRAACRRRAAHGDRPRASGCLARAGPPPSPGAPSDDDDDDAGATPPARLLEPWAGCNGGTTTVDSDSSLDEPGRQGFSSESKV

[9] = target: Gamma-aminobutyric acid receptor subunit alpha-1 (Rattus norvegicus, UniProt P62813)
Chain of Gamma-aminobutyric acid receptor subunit alpha-1 (P62813 whole entry): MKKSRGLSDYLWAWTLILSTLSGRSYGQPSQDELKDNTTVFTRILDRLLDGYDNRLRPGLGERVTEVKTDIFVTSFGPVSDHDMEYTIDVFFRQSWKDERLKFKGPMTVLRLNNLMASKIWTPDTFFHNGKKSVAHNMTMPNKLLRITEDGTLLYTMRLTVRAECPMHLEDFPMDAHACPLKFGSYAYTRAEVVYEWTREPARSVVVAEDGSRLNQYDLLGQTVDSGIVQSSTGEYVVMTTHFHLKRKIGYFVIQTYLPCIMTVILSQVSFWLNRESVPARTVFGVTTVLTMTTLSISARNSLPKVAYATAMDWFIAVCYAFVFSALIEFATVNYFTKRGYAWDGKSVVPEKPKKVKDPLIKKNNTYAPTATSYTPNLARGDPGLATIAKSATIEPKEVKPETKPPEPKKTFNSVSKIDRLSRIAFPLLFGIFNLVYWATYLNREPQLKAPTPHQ

[10] = target: 5-hydroxytryptamine receptor 1B (Rattus norvegicus, UniProt P28564)
Chain of 5-hydroxytryptamine receptor 1B (P28564 whole entry): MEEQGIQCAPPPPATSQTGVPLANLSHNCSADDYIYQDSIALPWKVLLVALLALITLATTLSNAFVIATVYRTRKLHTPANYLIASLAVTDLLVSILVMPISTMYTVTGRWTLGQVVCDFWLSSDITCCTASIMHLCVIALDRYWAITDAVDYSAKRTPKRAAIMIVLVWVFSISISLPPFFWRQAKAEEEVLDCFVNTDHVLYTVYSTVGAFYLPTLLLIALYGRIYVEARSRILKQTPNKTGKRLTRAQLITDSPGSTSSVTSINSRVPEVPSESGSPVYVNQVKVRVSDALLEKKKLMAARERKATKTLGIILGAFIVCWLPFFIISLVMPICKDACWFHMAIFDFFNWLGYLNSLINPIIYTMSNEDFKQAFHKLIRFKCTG

Ki [1]	Ki [2]	Ki [3]	Ki [4]	Ki [5]	Ki [6]	Ki [7]	Ki [8]	Ki [9]	Ki [10]	Structure (SMILES)
2 µM	> 10 µM	> 10 µM	0.65 µM	2.2 µM	2.8 µM	2.2 µM	> 10 µM	> 10 µM	> 10 µM	NC(=NCc1ccccc1)NC(=O)c1nc(Cl)c(N)nc1N [NSC_108107]
> 10 µM	3.9 µM	> 10 µM	0.41 µM	> 10 µM	4.7 µM	5.2 µM	> 10 µM	> 10 µM	> 10 µM	N=C(N)NC(=O)c1nc(Cl)c(N2CCCCCC2)nc1N

Structure (SMILES)	Ki [1]	Ki [2]	Ki [3]	Ki [4]	Ki [5]	Ki [6]	Ki [7]	Ki [8]	Ki [9]	Ki [10]
N=C(N)NC(=O)c1nc(Cl)c(N)nc1N [3,5-diamino-N-carbamimidoyl-6-chloropyrazine-2-carboxamide]	> 10 µM	> 10 µM	> 10 µM	2 µM	> 10 µM	> 10 µM	> 10 µM	> 10 µM	> 10 µM	> 10 µM
